Test results: the kinase profiling compilation of Christmann-Franck et al. (2016)

Experiments:
Assay in all cases: radiometric filter-binding kinase assay, Kinase HotSpot
Conditions in all cases: compound 0.5 µM; ATP 10 µM
[1] = molecular target: MAP3K10 (human) (UniProt Q02779)
[2] = molecular target: NTRK2 (human) (UniProt Q16620)
[3] = molecular target: ABL2 (human) (UniProt P42684)
[4] = molecular target: MAPK10 (human) (UniProt P53779)
[5] = molecular target: TGFBR1 (human) (UniProt P36897)
[6] = molecular target: PRKG2 (human) (UniProt Q13237)
[7] = molecular target: HIPK2 (human) (UniProt Q9H2X6)
[8] = molecular target: CAMK4 (human) (UniProt Q16566)
[9] = molecular target: GRK5 (human) (UniProt P34947)
[10] = molecular target: CDK2 CCNA2 (human) (UniProt P24941+P20248)
[11] = molecular target: CDK7 CCNH MNAT1 (human) (UniProt P50613+P51948+P51946)
[12] = molecular target: BTK (human) (UniProt Q06187)
[13] = molecular target: PDPK1 (human) (UniProt O15530)
[14] = molecular target: ACVRL1 (human) (UniProt P37023)
[15] = molecular target: CAMK2A (human) (UniProt Q9UQM7)
[16] = molecular target: NEK6 (human) (UniProt Q9HC98)
[17] = molecular target: CHUK (human) (UniProt O15111)
[18] = molecular target: CSNK1G1 (human) (UniProt Q9HCP0)
[19] = molecular target: MKNK2 (human) (UniProt Q9HBH9)
[20] = molecular target: PRKCI (human) (UniProt P41743)
[21] = molecular target: AKT2 (human) (UniProt P31751)
[22] = molecular target: STK33 (human) (UniProt Q9BYT3)
[23] = molecular target: CDK2 CCNE1 (human) (UniProt P24941+P24864)
[24] = molecular target: CDK1 CCNA2 (human) (UniProt P06493+P20248)
[25] = molecular target: MELK (human) (UniProt Q14680)
[26] = molecular target: DYRK3 (human) (UniProt O43781)
[27] = molecular target: MAPK1 (human) (UniProt P28482)
[28] = molecular target: TSSK1B (human) (UniProt Q9BXA7)
[29] = molecular target: EPHA5 (human) (UniProt P54756)
[30] = molecular target: PRKCB2 (human) (UniProt P05771)
[31] = molecular target: PAK6 (human) (UniProt Q9NQU5)
[32] = molecular target: SRPK3 (human) (UniProt Q9UPE1)
[33] = molecular target: IGF1R (human) (UniProt P08069)
[34] = molecular target: NEK3 (human) (UniProt P51956)
[35] = molecular target: GRK4 (human) (UniProt P32298)
[36] = molecular target: PRKD2 (human) (UniProt Q9BZL6)
[37] = molecular target: MAPKAPK5 (human) (UniProt Q8IW41)
[38] = molecular target: SRPK2 (human) (UniProt P78362)
[39] = molecular target: CAMK1 (human) (UniProt Q14012)
[40] = molecular target: MAP4K2 (human) (UniProt Q12851)
[41] = molecular target: MINK1 (human) (UniProt Q8N4C8)
[42] = molecular target: KIT (human) (UniProt P10721)

GRK4 (human), sequence (P32298 whole entry, looked up): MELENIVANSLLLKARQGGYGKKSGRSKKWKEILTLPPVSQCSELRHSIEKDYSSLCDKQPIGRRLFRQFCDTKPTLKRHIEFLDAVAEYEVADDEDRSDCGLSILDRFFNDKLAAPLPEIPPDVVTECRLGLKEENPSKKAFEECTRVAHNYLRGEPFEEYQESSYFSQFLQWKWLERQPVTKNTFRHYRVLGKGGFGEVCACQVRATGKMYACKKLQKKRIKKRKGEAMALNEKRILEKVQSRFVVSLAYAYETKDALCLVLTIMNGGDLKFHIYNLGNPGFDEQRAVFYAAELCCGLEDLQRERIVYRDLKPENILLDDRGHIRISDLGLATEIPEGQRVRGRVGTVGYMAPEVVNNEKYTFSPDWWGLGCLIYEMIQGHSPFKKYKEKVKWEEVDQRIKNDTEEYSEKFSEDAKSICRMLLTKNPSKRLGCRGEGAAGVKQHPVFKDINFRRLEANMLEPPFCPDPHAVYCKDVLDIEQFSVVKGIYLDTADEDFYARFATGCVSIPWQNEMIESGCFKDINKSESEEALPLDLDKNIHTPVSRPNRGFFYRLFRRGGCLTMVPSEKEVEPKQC
PRKG2 (human), sequence (Q13237 whole entry, looked up): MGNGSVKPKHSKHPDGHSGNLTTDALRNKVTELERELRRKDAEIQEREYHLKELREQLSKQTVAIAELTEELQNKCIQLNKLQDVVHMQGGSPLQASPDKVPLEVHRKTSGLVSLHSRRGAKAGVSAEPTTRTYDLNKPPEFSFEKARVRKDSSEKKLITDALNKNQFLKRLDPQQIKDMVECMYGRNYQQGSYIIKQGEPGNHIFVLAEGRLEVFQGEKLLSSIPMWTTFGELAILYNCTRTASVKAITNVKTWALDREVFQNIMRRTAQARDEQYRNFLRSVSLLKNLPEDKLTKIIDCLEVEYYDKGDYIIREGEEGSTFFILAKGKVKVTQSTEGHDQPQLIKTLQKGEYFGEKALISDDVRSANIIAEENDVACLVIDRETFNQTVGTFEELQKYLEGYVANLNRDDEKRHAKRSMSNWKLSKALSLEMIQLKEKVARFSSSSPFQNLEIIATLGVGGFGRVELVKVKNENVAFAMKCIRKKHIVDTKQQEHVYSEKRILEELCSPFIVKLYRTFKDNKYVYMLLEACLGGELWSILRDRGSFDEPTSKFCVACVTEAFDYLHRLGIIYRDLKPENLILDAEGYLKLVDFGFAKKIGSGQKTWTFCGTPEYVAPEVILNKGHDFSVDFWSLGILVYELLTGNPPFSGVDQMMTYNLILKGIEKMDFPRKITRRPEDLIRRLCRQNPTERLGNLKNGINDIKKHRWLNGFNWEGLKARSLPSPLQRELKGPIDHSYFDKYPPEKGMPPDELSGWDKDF
NEK6 (human), sequence (Q9HC98 whole entry, looked up): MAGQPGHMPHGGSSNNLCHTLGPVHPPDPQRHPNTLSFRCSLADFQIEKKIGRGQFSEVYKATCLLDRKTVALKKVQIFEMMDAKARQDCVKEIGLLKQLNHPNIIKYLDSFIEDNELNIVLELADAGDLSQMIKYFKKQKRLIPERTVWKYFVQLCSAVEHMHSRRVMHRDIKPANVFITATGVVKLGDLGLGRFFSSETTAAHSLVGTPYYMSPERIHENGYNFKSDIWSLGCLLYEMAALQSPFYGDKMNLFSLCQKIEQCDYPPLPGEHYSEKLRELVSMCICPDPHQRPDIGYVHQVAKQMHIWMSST
MAPK1 (human), sequence (P28482 whole entry, looked up): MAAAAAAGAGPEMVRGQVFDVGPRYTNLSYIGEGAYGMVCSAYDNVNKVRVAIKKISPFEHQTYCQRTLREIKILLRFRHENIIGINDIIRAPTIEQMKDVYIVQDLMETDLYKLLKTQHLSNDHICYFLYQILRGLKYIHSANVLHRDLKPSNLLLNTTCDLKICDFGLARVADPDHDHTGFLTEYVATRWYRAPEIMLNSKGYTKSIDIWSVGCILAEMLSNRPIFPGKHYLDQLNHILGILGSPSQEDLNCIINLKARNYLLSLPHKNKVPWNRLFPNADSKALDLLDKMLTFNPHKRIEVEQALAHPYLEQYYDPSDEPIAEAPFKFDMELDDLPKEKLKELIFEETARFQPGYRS
EPHA5 (human), sequence (P54756 whole entry, looked up): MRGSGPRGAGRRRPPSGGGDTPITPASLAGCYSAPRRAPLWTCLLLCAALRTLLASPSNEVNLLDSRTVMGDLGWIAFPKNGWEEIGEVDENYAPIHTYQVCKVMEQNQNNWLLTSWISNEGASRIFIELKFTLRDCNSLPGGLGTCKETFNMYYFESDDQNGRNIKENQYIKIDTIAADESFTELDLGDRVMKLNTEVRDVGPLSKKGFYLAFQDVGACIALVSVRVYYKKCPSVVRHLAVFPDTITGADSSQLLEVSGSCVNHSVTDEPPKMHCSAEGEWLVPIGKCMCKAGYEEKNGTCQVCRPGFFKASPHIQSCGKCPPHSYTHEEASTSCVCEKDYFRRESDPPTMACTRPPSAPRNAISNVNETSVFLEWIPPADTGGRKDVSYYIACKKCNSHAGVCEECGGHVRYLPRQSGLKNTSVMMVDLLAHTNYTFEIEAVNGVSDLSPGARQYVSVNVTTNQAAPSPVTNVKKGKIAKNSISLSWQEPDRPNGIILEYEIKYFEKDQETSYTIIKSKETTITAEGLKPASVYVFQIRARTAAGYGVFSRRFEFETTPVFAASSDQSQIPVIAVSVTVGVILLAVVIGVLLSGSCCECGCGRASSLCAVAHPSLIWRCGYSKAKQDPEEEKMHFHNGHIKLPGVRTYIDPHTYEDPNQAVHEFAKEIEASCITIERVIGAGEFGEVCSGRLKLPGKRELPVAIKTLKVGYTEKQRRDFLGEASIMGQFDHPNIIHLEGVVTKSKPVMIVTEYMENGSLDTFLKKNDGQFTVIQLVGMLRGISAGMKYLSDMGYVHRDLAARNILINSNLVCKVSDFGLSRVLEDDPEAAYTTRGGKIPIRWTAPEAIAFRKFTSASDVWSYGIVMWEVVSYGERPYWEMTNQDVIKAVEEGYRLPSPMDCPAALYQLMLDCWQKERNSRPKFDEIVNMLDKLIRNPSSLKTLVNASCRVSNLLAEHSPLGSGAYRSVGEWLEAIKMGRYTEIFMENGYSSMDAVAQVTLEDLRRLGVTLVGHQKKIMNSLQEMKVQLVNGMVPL
TGFBR1 (human), sequence (P36897 whole entry, looked up): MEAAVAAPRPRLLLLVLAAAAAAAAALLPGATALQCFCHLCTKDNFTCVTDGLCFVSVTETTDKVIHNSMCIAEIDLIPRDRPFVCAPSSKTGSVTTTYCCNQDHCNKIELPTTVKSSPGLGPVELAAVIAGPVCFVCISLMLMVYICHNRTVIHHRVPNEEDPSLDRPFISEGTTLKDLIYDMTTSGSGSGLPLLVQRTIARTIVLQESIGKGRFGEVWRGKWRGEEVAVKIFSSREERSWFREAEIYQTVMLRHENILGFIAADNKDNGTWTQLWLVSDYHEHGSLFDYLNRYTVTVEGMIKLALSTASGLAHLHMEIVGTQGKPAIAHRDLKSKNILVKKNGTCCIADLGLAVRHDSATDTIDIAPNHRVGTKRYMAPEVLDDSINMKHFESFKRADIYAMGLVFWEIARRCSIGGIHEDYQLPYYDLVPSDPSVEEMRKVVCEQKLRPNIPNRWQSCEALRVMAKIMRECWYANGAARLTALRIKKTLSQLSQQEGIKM
TSSK1B (human), sequence (Q9BXA7 whole entry, looked up): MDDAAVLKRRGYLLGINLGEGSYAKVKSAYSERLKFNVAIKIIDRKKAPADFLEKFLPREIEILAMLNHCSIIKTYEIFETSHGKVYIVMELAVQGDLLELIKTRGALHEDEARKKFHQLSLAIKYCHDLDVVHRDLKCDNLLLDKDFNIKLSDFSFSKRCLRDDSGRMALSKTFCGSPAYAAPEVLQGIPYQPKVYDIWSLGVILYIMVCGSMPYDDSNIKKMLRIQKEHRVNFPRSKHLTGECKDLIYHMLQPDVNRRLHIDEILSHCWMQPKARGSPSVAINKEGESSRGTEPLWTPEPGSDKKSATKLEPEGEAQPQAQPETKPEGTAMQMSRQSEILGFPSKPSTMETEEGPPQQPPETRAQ
CDK2 CCNA2 (human), sequence (P20248 whole entry, looked up, other chains not shown): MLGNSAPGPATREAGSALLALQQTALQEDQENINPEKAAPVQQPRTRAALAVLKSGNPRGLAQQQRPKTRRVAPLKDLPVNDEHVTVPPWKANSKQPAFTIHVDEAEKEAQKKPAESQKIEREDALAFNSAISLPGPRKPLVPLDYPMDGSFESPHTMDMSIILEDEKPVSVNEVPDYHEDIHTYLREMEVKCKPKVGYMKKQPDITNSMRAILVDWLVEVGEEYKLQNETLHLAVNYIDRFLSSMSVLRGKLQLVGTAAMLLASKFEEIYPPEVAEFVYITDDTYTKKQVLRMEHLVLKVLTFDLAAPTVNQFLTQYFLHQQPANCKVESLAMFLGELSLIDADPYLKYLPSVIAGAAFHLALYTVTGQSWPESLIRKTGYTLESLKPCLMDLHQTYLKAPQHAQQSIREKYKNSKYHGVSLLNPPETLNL
PRKCB2 (human), sequence (P05771 whole entry, looked up): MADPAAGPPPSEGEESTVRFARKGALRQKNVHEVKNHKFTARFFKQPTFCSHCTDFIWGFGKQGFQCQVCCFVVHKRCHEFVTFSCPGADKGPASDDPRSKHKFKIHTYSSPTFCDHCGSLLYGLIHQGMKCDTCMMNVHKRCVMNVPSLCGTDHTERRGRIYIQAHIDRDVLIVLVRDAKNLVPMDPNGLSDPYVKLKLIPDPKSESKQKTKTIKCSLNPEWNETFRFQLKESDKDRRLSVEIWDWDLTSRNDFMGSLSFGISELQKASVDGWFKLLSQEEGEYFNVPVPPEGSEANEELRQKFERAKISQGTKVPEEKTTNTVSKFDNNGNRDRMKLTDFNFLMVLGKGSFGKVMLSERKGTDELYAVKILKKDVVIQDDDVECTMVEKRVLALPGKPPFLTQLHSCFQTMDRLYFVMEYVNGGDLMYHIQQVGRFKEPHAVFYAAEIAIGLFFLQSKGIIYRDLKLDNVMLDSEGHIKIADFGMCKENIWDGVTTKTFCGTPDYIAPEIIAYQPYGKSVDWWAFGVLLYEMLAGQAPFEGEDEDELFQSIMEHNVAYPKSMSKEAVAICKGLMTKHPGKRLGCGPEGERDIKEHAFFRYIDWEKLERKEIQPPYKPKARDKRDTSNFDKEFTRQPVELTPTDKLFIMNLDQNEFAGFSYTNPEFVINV

Compound `Clc1ccc(Nc2nnc(Cc3ccncc3)c3ccccc23)cc1` has a residual activity [1] of 110%, a residual activity [2] of 102% and a residual activity [3] of 101%. It also gave a residual activity [4] of 116%, a residual activity [5] of 96.8% and a residual activity [6] of 101%. The residual activity [7] was 101%, the residual activity [8] was 93.4% and the residual activity [9] was 110%. The residual activity [10] was 87.7%, the residual activity [11] was 107% and the residual activity [12] was 95.4%. The residual activity [13] was 88.3%, the residual activity [14] was 98.5% and the residual activity [15] was 93.2%. For the same compound, the residual activity [16] was 93.3%, the residual activity [17] was 104% and the residual activity [18] was 103%. For the same compound, the residual activity [19] was 101%, the residual activity [20] was 94.2% and the residual activity [21] was 104%. It also gave a residual activity [22] of 94.2%, a residual activity [23] of 94.5% and a residual activity [24] of 105%. For the same compound, the residual activity [25] was 83.7%, the residual activity [26] was 95.9% and the residual activity [27] was 87.6%. It also gave a residual activity [28] of 94.8%, a residual activity [29] of 109% and a residual activity [30] of 97.2%. For the same compound, the residual activity [31] was 107%, the residual activity [32] was 104% and the residual activity [33] was 108%. It also gave a residual activity [34] of 94.1%, a residual activity [35] of 91.3% and a residual activity [36] of 86%. For the same compound, the residual activity [37] was 97.8%, the residual activity [38] was 96.5% and the residual activity [39] was 100%. It also gave a residual activity [40] of 107% and a residual activity [41] of 104%.

In the case of `CS(=O)c1ccc(-c2nc(-c3ccc(F)cc3)c(-c3ccncc3)[nH]2)cc1` (configuration not stated), the residual activity [1] is reported as 104%, the residual activity [2] is reported as 104% and the residual activity [3] is reported as 91.5%. It also gave a residual activity [4] of 114%, a residual activity [5] of 101% and a residual activity [6] of 92.7%. For the same compound, the residual activity [7] was 102%, the residual activity [8] was 101% and the residual activity [9] was 104%. It also gave a residual activity [10] of 101%, a residual activity [11] of 96.8% and a residual activity [12] of 97.2%. The residual activity [13] was 96.3%, the residual activity [14] was 97.7% and the residual activity [15] was 101%. It also gave a residual activity [16] of 103%, a residual activity [17] of 100% and a residual activity [18] of 95.7%. The residual activity [19] was 94.4%, the residual activity [20] was 95.2% and the residual activity [21] was 96.8%. It also gave a residual activity [22] of 98.1%, a residual activity [23] of 93.1% and a residual activity [24] of 91.2%. It also gave a residual activity [25] of 102%, a residual activity [26] of 99% and a residual activity [27] of 94.7%. For the same compound, the residual activity [28] was 108%, the residual activity [29] was 89.5% and the residual activity [30] was 97.9%. For the same compound, the residual activity [31] was 76.7%, the residual activity [32] was 99.4% and the residual activity [33] was 94.3%. It also gave a residual activity [34] of 92.2%, a residual activity [42] of 91.3% and a residual activity [35] of 95.5%. It also gave a residual activity [37] of 92.5%, a residual activity [38] of 102% and a residual activity [39] of 106%. It also gave a residual activity [40] of 106% and a residual activity [41] of 107%.

Compound `COc1ccc(-c2cnc3c(-c4ccsc4)cnn3c2)cc1` has a residual activity [1] of 94.2%, a residual activity [2] of 82.9% and a residual activity [3] of 63.4%. It also gave a residual activity [5] of 98%, a residual activity [6] of 92% and a residual activity [7] of 91.2%. The residual activity [8] was 98.4%, the residual activity [9] was 97.4% and the residual activity [10] was 83%. The residual activity [11] was 100%, the residual activity [12] was 97.1% and the residual activity [13] was 96%. For the same compound, the residual activity [14] was 76.4%, the residual activity [15] was 96.6% and the residual activity [16] was 99.3%. The residual activity [17] was 94.5%, the residual activity [18] was 90.3% and the residual activity [19] was 37.5%. For the same compound, the residual activity [20] was 96.2%, the residual activity [21] was 93.3% and the residual activity [22] was 71.6%. For the same compound, the residual activity [23] was 82.8%, the residual activity [24] was 87.4% and the residual activity [25] was 73.6%. It also gave a residual activity [26] of 89.9%, a residual activity [27] of 99.2% and a residual activity [28] of 99.1%. For the same compound, the residual activity [29] was 89.1%, the residual activity [30] was 94.3% and the residual activity [32] was 94.1%. The residual activity [33] was 91.3%, the residual activity [34] was 87.7% and the residual activity [42] was 36.2%. The residual activity [35] was 97%, the residual activity [36] was 97.7% and the residual activity [37] was 90.7%. The residual activity [38] was 94.1%, the residual activity [39] was 104% and the residual activity [40] was 74.8%. It also gave a residual activity [41] of 63.7%.
